This is an account of results in article PMC4448979 (Pharmacology Research & Perspectives, 2015).

Assay type in all cases: cell-based
Test [1] deals with T1, human P2X7 receptor (HEK-hP2X7) (Homo sapiens, UniProt Q99572).
T1 sequence (Q99572 1-595): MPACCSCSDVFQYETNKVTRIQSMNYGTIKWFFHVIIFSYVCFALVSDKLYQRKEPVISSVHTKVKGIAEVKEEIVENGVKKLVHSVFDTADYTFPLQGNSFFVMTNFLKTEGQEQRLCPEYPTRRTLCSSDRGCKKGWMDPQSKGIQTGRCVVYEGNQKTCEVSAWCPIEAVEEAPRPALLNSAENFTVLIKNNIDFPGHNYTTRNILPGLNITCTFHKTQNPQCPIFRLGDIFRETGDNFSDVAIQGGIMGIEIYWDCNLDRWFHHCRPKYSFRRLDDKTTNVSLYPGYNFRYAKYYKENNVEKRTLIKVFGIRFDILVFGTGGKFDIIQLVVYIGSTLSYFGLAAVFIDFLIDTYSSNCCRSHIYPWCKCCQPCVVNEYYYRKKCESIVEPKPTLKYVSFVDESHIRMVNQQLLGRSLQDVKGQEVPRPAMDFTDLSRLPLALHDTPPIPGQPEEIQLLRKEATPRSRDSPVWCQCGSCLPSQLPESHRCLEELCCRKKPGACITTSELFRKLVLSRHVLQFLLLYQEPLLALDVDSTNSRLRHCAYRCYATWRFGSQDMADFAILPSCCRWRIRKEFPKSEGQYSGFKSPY
The experiment in a line: YoPro1 dye uptake, fluorescence plate reader. The conditions noted are these: agonist; HEK-hP2X7 cells.

Test [2] concerns the target T1, human P2X7 receptor (HEK-hP2X7). The experiment in a line: YoPro1 dye uptake, fluorescence plate reader.
The target of test [3] is T2, P2X7 receptor of mouse microglia BV2 cells (Mus musculus, UniProt Q9Z1M0).
T2 sequence (Q9Z1M0 1-595): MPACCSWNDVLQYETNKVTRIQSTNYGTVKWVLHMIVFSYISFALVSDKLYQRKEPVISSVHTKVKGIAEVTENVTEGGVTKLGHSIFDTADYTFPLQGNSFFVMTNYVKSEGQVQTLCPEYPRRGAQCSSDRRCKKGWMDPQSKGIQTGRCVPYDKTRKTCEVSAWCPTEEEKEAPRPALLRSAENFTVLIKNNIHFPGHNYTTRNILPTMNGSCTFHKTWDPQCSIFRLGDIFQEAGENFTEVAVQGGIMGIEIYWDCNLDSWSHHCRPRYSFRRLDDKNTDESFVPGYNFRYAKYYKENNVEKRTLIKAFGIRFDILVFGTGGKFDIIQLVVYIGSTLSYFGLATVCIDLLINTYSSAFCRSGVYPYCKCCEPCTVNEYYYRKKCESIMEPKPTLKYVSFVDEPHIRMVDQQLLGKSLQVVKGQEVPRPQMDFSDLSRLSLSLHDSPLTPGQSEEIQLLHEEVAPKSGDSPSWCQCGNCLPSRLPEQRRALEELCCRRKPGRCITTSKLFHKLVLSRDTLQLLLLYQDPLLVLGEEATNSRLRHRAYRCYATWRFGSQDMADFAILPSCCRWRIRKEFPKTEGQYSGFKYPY
Description: whole-cell patch clamp. To be noted: antagonist; 100 μmol/L BzATP; -70 mV, room temperature, pH 7.4. In general terms: In patch-clamp work, channel activity is measured electrically.

A further test addresses T3, human P2X4 (1321N1) (Homo sapiens, UniProt Q99571).
T3 sequence (Q99571 1-388): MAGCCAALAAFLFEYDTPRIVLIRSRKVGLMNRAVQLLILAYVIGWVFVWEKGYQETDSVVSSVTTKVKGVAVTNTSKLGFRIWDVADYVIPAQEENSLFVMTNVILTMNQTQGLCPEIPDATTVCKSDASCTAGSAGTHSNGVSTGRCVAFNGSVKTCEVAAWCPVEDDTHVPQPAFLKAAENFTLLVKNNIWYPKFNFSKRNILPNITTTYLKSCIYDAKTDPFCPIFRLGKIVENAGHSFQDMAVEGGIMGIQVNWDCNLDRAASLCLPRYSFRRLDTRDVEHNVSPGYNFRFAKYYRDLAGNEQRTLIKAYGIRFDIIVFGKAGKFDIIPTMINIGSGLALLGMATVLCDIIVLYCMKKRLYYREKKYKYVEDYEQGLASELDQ
Description: Fluo-4 calcium flux, fluorescence plate reader. To be noted: 1321-N1, read-out: decrease in remaining activity at 10 μmol/L. For orientation: A change in cytosolic calcium serves as a functional read-out for many receptors and channels.

Test [4] deals with T1, human P2X7 receptor (HEK-hP2X7). Description: cytosensor, cell impedance.

For the compound `Nc1ncnc2c1ncn2[C@@H]1O[C@H](COP(=O)(O)OP(=O)(O)OP(=O)(O)O)[C@@H](O)[C@H]1O` [ATP], the “YoPro1 dye uptake, fluorescence plate reader” value in test [1] is “confirmed using the YoPro1 uptake assay upon stimulation of the target cells with ATP”.

Take `O=C(NCC12CC3CC(CC(C3)C1)C2)c1cc(CCCNCCCO)ccc1Cl` [AZD9056]: the IC50 was 0.0112 µM in test [2] and 1 to 3 µM in test [3]. The remaining activity at 10 µM at human P2X4 (1321N1) came out at 27%.

The compound `Nc1ncnc2c1ncn2[C@@H]1O[C@H](COP(=O)(O)OP(=O)(O)OP(=O)(O)O)[C@@H](OC(=O)c2ccc(C(=O)c3ccccc3)cc2)[C@H]1O` [BzATP, 2′, 3′–O–(4-benzoylbenzoyl)–ATP] gave an EC50 in test [4] of 9.6 ± 1.8 µM.

The term IC50 denotes the concentration that gives 50% inhibition. Lower therefore signals higher potency. In general, EC50 refers to the midpoint of the concentration-response curve. A low value points to higher potency in that assay.
